Laboratory results: patent US10626112B2, “Heterocyclic sulfonamide derivative and medicine comprising same” (EA PHARMA CO., LTD., priority 2014, dated 2020)

Each compound was assayed against T1, human TRPA1 (Homo sapiens (Human), UniProt O75762) (assay: Measurement of TRPA1 antagonist activity (2): as (1), different lot of human TRPA1 expression plasmid). Conditions: 293T cells transfected with human TRPA1, allylisothiocyanate 20 μM stimulation, calcium fluorescence, read-out: hTRPA1 IC50.
Assay type: cell-based
Method: Human embryonic kidney-derived 293T cells were cultured in Dulbecco's Modified Eagle Medium containing 10% fetal bovine serum, 10 unit penicillin, and 10 μg streptomycin, plated on a petri dish having a diameter of 10 cm at 3×10^6 cells, and cultured for 24 hr in a CO2 incubator. A reduced serum medium (manufactured by Invitrogen, trade name: OPTI-MEM, 600 μL), a gene transfer reagent (manufactured by Mirus Bio, trade name: Mirus TransIT-293, 18 μL), and human TRPA1 expression plasmid (6 μg) were mixed, the total amount of the mixture was added to the cells on the petri dish to allow for gene transfer. The cells were recovered about for 8 hr later, plated on a poly-D-lysine coated 384 well black/clear bottom plate at 12,000 cells/well, and cultured overnight.
Measurement of Intracellular Calcium Increase
The 384 well plate was recovered, and the medium was removed. A calcium-bonded fluorescent indicator (manufactured by Molecular Device, trade name: Calcium4 Assay Kit, 38 μL) dissolved in assay buffer (1×HBSS, 20 mM HEPES, pH 7.2) was added, and the cells were stained in a CO2 incubator for 1 hr. The cells were taken out at room temperature, stood for not less than 15 min, a test substance (10 μL) was added by a platereader FDSS7000 (Hamamatsu Photonics K.K.) equipped with a 384ch dispenser. After 10 min, allylisothiocyanate (12 μL) was further added at a final concentration of 20 μM, and changes in the relative fluorescence intensity after addition of allylisothiocyanate were measured for 5 min.
Test Substance Preparation
The test substance was dissolved in dimethyl sulfoxide and serially diluted with an assay buffer containing 0.1% bovine serum albumin (1×HBSS, 20 mM HEPES, pH 7.2) to a 4.8-fold concentration of the evaluation concentration. Allylisothiocyanate, which is a known TRPA1 activator, was dissolved in dimethyl sulfoxide to 100 mM, and further diluted 5-fold (100 μM) of the final concentration, like the test substance.
Calculation of Antagonist Activity
Under the test substance-free conditions, the maximum variation range of the fluorescence intensity before and after allylisothiocyanate stimulation was defined to be 100% activity rate, and the variation range before and after buffer stimulation was defined as 0% activity rate. The activity rate on addition of the test substance was determined, and the numerical value obtained by subtracting the activity rate from 100 was defined to be an inhibitory rate. IC50, which is the concentration of the test substance necessary for reaching the 50% inhibitory rate, was calculated from the sigmoid approximate curve by a spreadsheet software Excel-Fit.
Measurement of TRPA1 Antagonist Activity (2)
By a method similar to that in Experimental Example 1-1 except that the lot of human […] expression plasmid is different, the TRPA1 antagonist activity of the test substance was measured.

T1 sequence (O75762 whole entry): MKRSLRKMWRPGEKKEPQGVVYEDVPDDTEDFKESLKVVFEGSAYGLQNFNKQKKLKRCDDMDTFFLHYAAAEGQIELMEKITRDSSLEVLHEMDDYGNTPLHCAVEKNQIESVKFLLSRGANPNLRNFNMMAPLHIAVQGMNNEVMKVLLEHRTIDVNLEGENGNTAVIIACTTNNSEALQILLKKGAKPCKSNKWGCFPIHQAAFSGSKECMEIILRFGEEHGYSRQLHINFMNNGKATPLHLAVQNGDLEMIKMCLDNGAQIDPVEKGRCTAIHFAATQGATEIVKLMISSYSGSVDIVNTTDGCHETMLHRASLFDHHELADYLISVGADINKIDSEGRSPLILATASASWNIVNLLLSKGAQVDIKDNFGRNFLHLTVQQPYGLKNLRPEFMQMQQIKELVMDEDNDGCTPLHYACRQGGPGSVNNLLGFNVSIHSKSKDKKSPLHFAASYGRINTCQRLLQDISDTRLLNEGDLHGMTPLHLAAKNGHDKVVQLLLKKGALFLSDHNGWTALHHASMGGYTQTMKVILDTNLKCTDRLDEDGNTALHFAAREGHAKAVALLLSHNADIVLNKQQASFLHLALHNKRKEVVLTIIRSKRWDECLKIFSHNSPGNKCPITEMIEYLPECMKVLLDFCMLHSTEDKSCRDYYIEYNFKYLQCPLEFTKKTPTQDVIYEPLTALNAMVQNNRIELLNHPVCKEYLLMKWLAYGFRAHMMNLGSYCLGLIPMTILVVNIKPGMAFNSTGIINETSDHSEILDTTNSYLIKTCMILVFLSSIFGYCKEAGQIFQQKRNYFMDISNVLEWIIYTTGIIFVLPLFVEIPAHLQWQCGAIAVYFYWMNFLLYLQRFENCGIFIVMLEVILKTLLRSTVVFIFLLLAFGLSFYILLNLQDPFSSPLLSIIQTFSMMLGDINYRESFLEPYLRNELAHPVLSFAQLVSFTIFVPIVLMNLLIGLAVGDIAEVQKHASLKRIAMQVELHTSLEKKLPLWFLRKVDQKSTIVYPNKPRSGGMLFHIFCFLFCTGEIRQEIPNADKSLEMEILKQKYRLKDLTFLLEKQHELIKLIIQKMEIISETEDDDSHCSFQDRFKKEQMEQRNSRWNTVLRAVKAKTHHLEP

IC50 [µM]	Structure (SMILES)
0.01	CC(C)N(CC(=O)NCc1cc(-c2ccc(C(F)(F)F)cc2)ncn1)S(=O)(=O)c1cc2cc(F)ccc2o1 [Example 420, 2-[(5-fluorobenzofuran-2-yl)sulfonyl-isopropyl-amino]-N-[[6-[4-(trifluoromethyl)phenyl]pyrimidin-4-yl]methyl]acetamide]
0.012	CC(C)(C)OC(=O)c1cc(CNC(=O)[C@@H]2CCCN2S(=O)(=O)c2cc3ccccc3o2)cc(-c2ccc(C(F)(F)F)cc2)c1 [Example 338, tert-butyl 3-[[[(2S)-1-(benzofuran-2-ylsulfonyl)pyrrolidine-2-carbonyl]amino]methyl]-5-[4-(trifluoromethyl)phenyl]-benzoate]
0.014	C=CCN([C@@H](C)C(=O)NCc1cc(-c2ccc(C(F)(F)F)cn2)ccn1)S(=O)(=O)c1cc2cc(F)ccc2o1 [Example 417, (2S)-2-[allyl-(5-fluorobenzofuran-2-yl)sulfonyl-amino]-N-[[4-[5-(trifluoromethyl)-2-pyridyl]-2-pyridyl]methyl]propanamide]
0.016	O=C(NCc1cc(-c2ccc(C(F)(F)F)nc2)ncn1)[C@@H]1CCN1S(=O)(=O)c1cc2ccccc2o1 [Example 408, (2S)-1-(benzofuran-2-ylsulfonyl)-N-[[6-[6-(trifluonomethyl)-3-pyridyl]pyrimidin-4-yl]methyl]azetidine-2-carboxamide]
0.055	O=C(NCc1cc(-c2cnc(C(F)(F)F)nc2)ncn1)[C@@H]1CCN1S(=O)(=O)c1cc2cc(F)ccc2o1 [Example 387, (2S)-1-(5-fluorobenzofuran-2-yl)sulfonyl-N-[[6-[2-(trifluoromethyl)pyrimidin-5-yl]pyrimidin-4-yl]methyl]azetidine-2-carboxamide]

Each compound was assayed against T1, human TRPA1 (assay: Measurement of TRPA1 antagonist activity (1): intracellular calcium increase). Conditions: 293T cells transfected with human TRPA1 expression plasmid; allylisothiocyanate 20 μM stimulation; intracellular calcium fluorescence; read-out: hTRPA1 IC50.
Assay type: cell-based
In short: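 Calcium-flux readout of TRPA1 block: compound given 10 min before 20 μM (final) allylisothiocyanate, fluorescence tracked 5 min. Cells were 293T transiently expressing human TRPA1, dye-loaded 1 hr in HBSS, 20 mM HEPES, pH 7.2. Inhibition scaled between agonist-only and buffer-only responses; IC50 by sigmoid fitting.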

Structure (SMILES)	IC50 [µM]
O=C(NCc1cccc(OCC2CCOC2)c1)[C@@H]1CCCN1S(=O)(=O)c1cc2cc(F)ccc2o1 (stereo partly drawn) [Example 32, (2S)-1-(5-fluorobenzofuran-2-yl)sulfonyl-N-[[3-(tetrahydrofuran-3-ylmethoxy)phenyl]-methyl]pyrrolidine-2-carboxamide]	0.031
N#Cc1cccc(COc2cccc(CNC(=O)[C@@H]3CCCN3S(=O)(=O)c3cc4ccccc4o3)c2)c1 [Example 2, (2S)-1-(benzofuran-2-ylsulfonyl)-N-[[3-[(3-cyanophenyl)methoxy]phenyl]methyl]pyrrolidine-2-carboxamide]	0.0079
O=C(NCc1cccc(OCc2ccc(C(F)(F)F)cc2)c1)[C@@H]1CCCN1S(=O)(=O)c1cc2c(F)cccc2o1 [Example 42, (2S)-1-(4-fluorobenzofuran-2-yl)sulfonyl-N-[[3-[[4-(trifluoromethyl)phenyl]methoxy]-phenyl]methyl]pyrrolidine-2-carboxamide]	0.0071
CN(C)c1cc(COc2cccc(CNC(=O)[C@@H]3CCCN3S(=O)(=O)c3cc4cc(F)ccc4o3)c2)ccn1 [Example 17, (2S)-N-[[3-[[2-(dimethylamino)-4-pyridyl]methoxy]phenyl]-methyl]-1-(5-fluorobenzofuran-2-yl)sulfonyl-pyrrolidine-2-carboxamide]	0.015
O=C(NCc1cccc(-c2ccc(C(F)(F)F)cn2)c1)[C@@H]1[C@@H](O)CCN1S(=O)(=O)c1cc2cc(F)ccc2o1 [Example 94, (2S,3S)-1-(5-fluorobenzofuran-2-yl)sulfonyl-3-hydroxy-N-[[3-[5-(trifluoromethyl)-2-pyridyl]phenyl]methyl]pyrrolidine-2-carboxamide]	0.011
O=C(NCc1cccc(-c2ccc(N3CCOCC3)nc2)c1)[C@@H]1CCCN1S(=O)(=O)c1cc2cc(F)ccc2o1 [Example 161, (2S)-1-(5-fluorobenzofuran-2-yl)sulfonyl-N-[[3-(6-morpholino-3-pyridyl)phenyl]methyl]-pyrrolidine-2-carboxamide]	0.027
O=C(NCc1cc(-c2ccc(C(F)(F)F)cn2)ccn1)[C@@H]1[C@@H](O)CCN1S(=O)(=O)c1cc2cc(F)ccc2o1 [Example 228, (2S,3S)-1-(5-fluorobenzofuran-2-yl)sulfonyl-3-hydroxy-N-[[4-[5-(trifluoromethyl)-2-pyridyl]-2-pyridyl]methyl]pyrrolidine-2-carboxamide]	0.032
O=C(NCc1cc(-c2ccc(OC(F)(F)F)cc2)ccn1)[C@@H]1CCCN1S(=O)(=O)c1cc2cc(F)ccc2o1 [Example 222, (2S)-1-(5-fluorobenzofuran-2-yl)sulfonyl-N-[[4-[4-(trifluoromethoxy)phenyl]-2-pyridyl]methyl]pyrrolidine-2-carboxamide]	0.0024
C[C@H](NS(=O)(=O)c1cc2cc(F)ccc2o1)C(=O)NCc1cc(-c2ccc(C(F)(F)F)cn2)c(O)cn1 [Example 255, (2S)-2-[(5-fluorobenzofuran-2-yl)sulfonylamino]-N-[[5-hydroxy-4-[5-(trifluoromethyl)-2-pyridyl]-2-pyridyl]methyl]propanamide]	0.017
C[C@H](NS(=O)(=O)c1cc2cc(F)ccc2o1)C(=O)NCc1ccnc(-c2ccc(C(F)(F)F)nc2)c1 [Example 236, (2S)-2-[(5-fluorobenzofuran-2-yl)sulfonylamino]-N-[[2-[6-(trifluoromethyl)-3-pyridyl]-4-pyridyl]methyl]propanamide]	0.031
O=C(NCc1cc(F)cc(OCc2ccncc2)c1)[C@@H]1CCCN1S(=O)(=O)c1cc2cc(F)ccc2o1 [Example 35, (2S)-1-(5-fluorobenzofuran-2-yl)sulfonyl-N-[[3-fluoro-5-(4-pyridylmethoxy)-phenyl]methyl]-pyrrolidine-2-carboxamide]	0.008
O=C(NCc1cc(-c2ccc(C(F)(F)F)cn2)ccn1)[C@@H]1[C@H]2C[C@H]2CN1S(=O)(=O)c1cc2cc(F)ccc2o1 [Example 257, (1R,4S,5S)-3-(5-fluorobenzofuran-2-yl)sulfonyl-N-[[4-[5-(trifluoromethyl)-2-pyridyl]-2-pyridyl]methyl]-3-azabicyclo[3.1.0]hexane-4-carboxamide]	0.064
C[C@H](NS(=O)(=O)c1cc2cc(F)ccc2o1)C(=O)NCc1cc(-c2ccc(OC(F)(F)F)cc2)ccn1 [Example 239, (2S)-2-[(5-fluorobenzofuran-2-yl)sulfonylamino]-N-[[4-[4-(trifluoromethoxy)phenyl]-2-pyridyl]methyl]propanamide]	0.017
O=C(NCc1cccc(OCc2ccc(C(F)(F)F)cc2)c1)[C@@H]1C[C@@H](O)CN1S(=O)(=O)c1cc2ccccc2o1 [Example 46, (2S,4R)-1-(benzofuran-2-ylsulfonyl)-4-hydroxy-N-[[3-[[4-(trifluoromethyl)phenyl]methoxy]-phenyl]methyl]pyrrolidine-2-carboxamide]	0.13
O=C(NCc1cc(-c2ccc(C(F)(F)F)cn2)ccn1)[C@@H]1CCCN1S(=O)(=O)c1cc2cc(F)ccc2o1 [Example 223, (2S)-1-(5-fluorobenzofuran-2-yl)sulfonyl-N-[[4-[5-(trifluoromethyl)-2-pyridyl]-2-pyridyl]methyl]pyrrolidine-2-carboxamide]	0.00088
O=C(NCc1cc(-c2ccc(C(F)(F)F)cn2)ccn1)[C@@H]1CCCN1S(=O)(=O)c1cc2c(Cl)nccc2o1 [Example 265, (2S)-1-(4-chlorofuro[3,2-c]pyridin-2-yl)sulfonyl-N-[[4-[5-(trifluoromethyl)-2-pyridyl]-2-pyridyl]methyl]pyrrolidine-2-carboxamide]	0.012

Results, then the compound that gave them:

IC50 [µM]	Structure (SMILES)
0.016	CSc1ccc(-c2cc(CNC(=O)[C@@H]3CCCN3S(=O)(=O)c3cc4ccccc4o3)ccn2)cc1 [Example 278, (2S)-1-(benzofuran-2-ylsulfonyl)-N-[[2-(4-methylsulfanylphenyl)-4-pyridyl]methyl]pyrrolidine-2-carboxamide]
0.0025	COc1cc(CNC(=O)[C@@H]2CCCN2S(=O)(=O)c2cc3ccccc3o2)cc(-c2ccc(C(F)(F)F)nc2)c1 [Example 310, (2S)-1-(benzofuran-2-ylsulfonyl)-N-[[3-methoxy-5-[6-(trifluoromethyl)-3-pyridyl]phenyl]methyl]pyrrolidine-2-carboxamide]
